# Target: T1, transfer ribonucleic acid polymerase (Mus musculus, UniProt B2RXC6+P59470)
# T1 sequence (B2RXC6 1-1390): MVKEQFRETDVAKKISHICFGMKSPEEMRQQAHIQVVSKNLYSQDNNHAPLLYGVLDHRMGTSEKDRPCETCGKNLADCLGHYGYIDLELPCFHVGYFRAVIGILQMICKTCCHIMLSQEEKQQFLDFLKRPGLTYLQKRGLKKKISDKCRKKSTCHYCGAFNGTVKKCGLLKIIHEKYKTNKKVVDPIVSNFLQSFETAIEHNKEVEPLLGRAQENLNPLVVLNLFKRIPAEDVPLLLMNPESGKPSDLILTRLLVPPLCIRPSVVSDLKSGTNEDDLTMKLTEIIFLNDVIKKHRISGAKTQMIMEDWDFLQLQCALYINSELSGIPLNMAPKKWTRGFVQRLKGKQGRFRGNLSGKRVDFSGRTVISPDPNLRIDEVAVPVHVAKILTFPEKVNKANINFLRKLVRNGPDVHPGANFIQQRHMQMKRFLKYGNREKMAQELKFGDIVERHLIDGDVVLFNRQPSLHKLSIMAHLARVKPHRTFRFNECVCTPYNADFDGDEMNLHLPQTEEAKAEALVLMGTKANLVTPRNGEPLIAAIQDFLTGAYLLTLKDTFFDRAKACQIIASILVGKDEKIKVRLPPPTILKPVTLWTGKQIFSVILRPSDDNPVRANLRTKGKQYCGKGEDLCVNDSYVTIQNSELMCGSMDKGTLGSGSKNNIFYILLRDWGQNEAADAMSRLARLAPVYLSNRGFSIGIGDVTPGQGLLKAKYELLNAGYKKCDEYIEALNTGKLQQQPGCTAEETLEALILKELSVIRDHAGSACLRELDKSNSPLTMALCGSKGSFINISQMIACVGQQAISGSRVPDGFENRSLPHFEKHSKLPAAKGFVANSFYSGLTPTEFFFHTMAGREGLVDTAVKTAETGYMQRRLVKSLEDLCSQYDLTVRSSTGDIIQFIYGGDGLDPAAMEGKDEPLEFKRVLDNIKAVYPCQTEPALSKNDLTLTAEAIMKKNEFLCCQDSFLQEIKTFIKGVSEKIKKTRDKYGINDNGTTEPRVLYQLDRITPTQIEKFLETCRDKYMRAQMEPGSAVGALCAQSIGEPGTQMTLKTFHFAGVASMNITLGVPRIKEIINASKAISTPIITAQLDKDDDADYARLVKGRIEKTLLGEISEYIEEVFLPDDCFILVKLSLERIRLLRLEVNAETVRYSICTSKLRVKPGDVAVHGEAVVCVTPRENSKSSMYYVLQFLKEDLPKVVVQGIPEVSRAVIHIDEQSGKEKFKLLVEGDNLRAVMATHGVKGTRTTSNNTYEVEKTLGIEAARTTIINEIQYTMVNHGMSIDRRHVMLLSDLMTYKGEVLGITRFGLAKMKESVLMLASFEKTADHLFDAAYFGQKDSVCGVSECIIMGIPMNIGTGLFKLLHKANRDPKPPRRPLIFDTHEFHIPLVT
# T1 sequence (P59470 1-1133): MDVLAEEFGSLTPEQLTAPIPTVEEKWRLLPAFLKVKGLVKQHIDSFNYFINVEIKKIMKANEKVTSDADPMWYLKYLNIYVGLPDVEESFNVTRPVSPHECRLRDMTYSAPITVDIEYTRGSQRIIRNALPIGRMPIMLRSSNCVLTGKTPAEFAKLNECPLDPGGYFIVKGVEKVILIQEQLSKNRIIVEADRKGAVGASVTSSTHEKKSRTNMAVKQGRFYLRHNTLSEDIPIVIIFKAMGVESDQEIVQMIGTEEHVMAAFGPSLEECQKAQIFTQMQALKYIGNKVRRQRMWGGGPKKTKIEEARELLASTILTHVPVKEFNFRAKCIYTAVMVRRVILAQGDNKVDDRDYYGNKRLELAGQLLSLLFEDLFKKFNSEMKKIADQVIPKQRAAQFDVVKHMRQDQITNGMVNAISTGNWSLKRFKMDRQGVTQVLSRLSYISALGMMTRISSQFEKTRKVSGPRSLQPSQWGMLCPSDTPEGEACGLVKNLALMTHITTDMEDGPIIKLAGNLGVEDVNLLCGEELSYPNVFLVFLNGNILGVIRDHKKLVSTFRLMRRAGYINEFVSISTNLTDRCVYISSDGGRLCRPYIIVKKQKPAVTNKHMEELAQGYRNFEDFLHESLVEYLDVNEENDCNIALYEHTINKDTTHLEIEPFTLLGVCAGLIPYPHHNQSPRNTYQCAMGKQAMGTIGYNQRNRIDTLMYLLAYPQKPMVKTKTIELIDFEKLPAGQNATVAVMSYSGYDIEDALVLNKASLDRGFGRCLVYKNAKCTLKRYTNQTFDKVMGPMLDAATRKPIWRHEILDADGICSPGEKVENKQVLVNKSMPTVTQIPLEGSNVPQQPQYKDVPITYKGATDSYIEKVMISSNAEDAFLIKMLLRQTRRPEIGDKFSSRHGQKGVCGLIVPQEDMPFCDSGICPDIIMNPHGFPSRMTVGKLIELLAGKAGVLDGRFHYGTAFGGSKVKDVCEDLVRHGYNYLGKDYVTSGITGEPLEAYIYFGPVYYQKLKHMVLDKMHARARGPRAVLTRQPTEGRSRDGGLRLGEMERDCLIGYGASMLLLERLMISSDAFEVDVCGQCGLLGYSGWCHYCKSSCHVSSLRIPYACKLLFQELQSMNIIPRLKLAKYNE
# Assay: In vivo transfer ribonucleic acid polymerase activity
# Procedure: CF1 male mice (~30 g) were implanted with 2×10^6 Ehrlich ascites tumor cells, intraperitoneally on Day 0. Compound I was suspended by homogenation in 0.05% polysorbate.80-water and administered intraperitoneally at 10 and 20 mg/kg for 9 days to determine its effectiveness for inhibition of tumor growth. Mice were sacrificed on Day 10, and the ascites fluid was collected from the peritoneal cavity. The volume and ascrit (packed cell volume) were determined for each animal and the percent inhibition of tumor growth was calculated. For the metabolic studies, mice were treated on Days 8 and 9 with 10 mg/kg of Compound I, intraperitoneally. The animal was sacrificed on Day 10 and the ascites fluid harvested. The in vitro metabolic studies were performed at […] final concentration of Compound I.
# In vitro and in vivo nuclear deoxyribonucleic acid polymerase activity was determined on isolated Ehrlich ascites cell nuclei. The incubation was that described by Sawada et al [Can. Res., 34, 3341 (1974)] except that [methyl-^3 H] deoxythymidine triphosphate (82.4 Ci/mmol) was used. The acid insoluble nucleic acid was collected on GF/F filters and counted. Nuclear ribonucleic acid polymerase activities were determined on enzymes isolated from nuclei. […] The acid insoluble ribonucleic acid was collected on nitrocellulose filters and counted.
substance,measurement,setting,value
{Cu[(CH3)3 N.BH2 CO2 ]2.(CH3)3 N.BH2 COOH} [Compound I],transfer ribonucleic acid polymerase activity suppressed,,37%
same,Transfer ribonucleic acid polymerase activity,10 mg/kg/day I.P. on Days 8 and 9,63 ± 7 % Control
